Literature values in patent US12350336B2, “Photo-activatable compound, its preparation and therapeutic use” (City University of Hong Kong, priority 2021, dated 2025).

Conditions: calibration standard value

CN(C)c1ccc2nc3ccc(=[N+](C)C)cc-3sc2c1 [MB, Methylene blue]
ΦΔ (1O2 quantum yield) of calibration standard: 0.52
